Laboratory results: patent US12648924B2, “Prevention and treatment of effects of aging and age-associated disorders with ketone supplementation” (priority 2020, dated 2026)

Test: Tolerability of KDE incorporated in food, bodyweight and food intake (pilot work, Experiment 4b)
Assay type: in vivo, VM/Dk mice
Excerpt: Food Intake and Ketone Diester Administration: Standard diet dry food (2018 Teklad Global 18% Protein Rodent Diet, Harlan) was mixed with deionized water (1 g dry food/mL deionized water) into a consistent paste and placed on a 100×15 mm dish. Food intake was tracked daily at the same time (7:00-9:00) and replaced every other day to ensure fresh food. Due to sinusoidal/oscillatory changes in food intake observed every other day (2-day pattern), a 4-day (2×2-day pattern) average was taken at EOL and baseline to calculate changes in anorexic symptoms. KDE was chemically synthesized with physical properties, preparation, and analysis described previously. For evaluation of KDE effect on anorexia, food intake was tracked daily at the same time (7:00-9:00). […] Consequently, upon VM-M3 inoculation, KDE+VM-M3 received ad libitum 0% KDE/weight day 1, 5% KDE day 2, 10% KDE day 3, 15% KDE day 4, 20% KDE day 5, 25% KDE day 6, and 30% KDE day 7 through 21 on top of HPSD. VM-M3 and Sham received HPSD ad libitum. As pilot work indicated potential water evaporation in food paste in ventilated cages, dehydration standard curve was calculated across various volumes of plated food (5, 10, 25.0, 50.0, 100 g/food) with and without KDE over a two-day period. Standard curve equation [water evaporated=0.2472 (original grams of water)+1.364] was used to correct for amount of dehydration prior to calculating caloric intake. For LPS experiments, 1×4 mL/kg KDE gavage or 1×4 mL/kg water gavage were administered for KDE+LPS and LPS-only, respectively. […]
To determine whether KDE could alter systemic metabolism, blood metabolites were measured at baseline following a standard diet and after a 4-day transition to a standard diet supplemented with 20% KDE, 25% KDE, or 30% KDE. […] To determine whether KDE could alter metabolism in CACS, blood ketones, glucose, and lactate were measured weekly. […] Thus, to determine if KDE altered tumor burden, in vivo bioluminescence imaging was analyzed weekly.

Compound: CC(=O)CC(=O)OCCC(C)OC(=O)CC(C)=O (stereo not drawn) [KDE, R/S 1,3-butanediol acetoacetate diester]
- ad libitum food intake (20-30% by weight KDE incorporated in standard diet, pilot work): reductions in ad libitum food intake
- tolerability as indicated by bodyweight maintenance (30% KDE reached incrementally (5%/day) over 7 days): well-tolerated
- bodyweight across time (incremental incorporation 0-30% KDE/weight at 5% KDE/weight/day, highly palatable standard diet): did not result in changes in bodyweight across time
